Experimental data as given in patent US11110103B2, “Inhibitors of glucocorticoid receptor” (ORIC Pharmaceuticals, Inc., priority 2015, dated 2021).

Target: T1, GR (Homo sapiens, UniProt P04150)
T1 construct: expressed in transfected cells; host or cells: CHO-K1 (CHO-K1-GR-MMTV-Luc reporter cells)
T1 sequence (P04150 1-777): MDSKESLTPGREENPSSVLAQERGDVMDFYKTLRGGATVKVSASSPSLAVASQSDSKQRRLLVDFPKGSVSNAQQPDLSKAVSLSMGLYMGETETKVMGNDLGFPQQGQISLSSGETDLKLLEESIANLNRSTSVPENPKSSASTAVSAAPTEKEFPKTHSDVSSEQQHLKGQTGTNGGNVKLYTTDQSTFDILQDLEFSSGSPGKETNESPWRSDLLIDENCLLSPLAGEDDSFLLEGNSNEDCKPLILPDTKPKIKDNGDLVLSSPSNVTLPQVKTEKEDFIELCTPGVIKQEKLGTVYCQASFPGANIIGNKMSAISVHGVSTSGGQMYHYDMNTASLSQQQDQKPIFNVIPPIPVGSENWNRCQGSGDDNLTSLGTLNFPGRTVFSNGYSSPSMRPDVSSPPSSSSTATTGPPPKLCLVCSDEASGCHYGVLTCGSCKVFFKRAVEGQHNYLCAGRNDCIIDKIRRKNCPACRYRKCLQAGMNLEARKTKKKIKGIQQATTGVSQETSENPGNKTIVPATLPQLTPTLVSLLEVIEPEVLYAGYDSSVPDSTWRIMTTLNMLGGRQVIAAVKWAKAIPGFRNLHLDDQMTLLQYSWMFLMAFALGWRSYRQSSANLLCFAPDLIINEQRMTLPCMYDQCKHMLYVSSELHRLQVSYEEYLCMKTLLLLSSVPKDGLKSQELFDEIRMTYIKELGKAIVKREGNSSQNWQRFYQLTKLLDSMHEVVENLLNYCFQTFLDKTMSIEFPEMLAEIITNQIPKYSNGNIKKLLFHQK
Experiment: In Vitro GR Luciferase Reporter Assay (antagonist assay)
Type: cell-based
Conditions: CHO-K1-GR-MMTV-Luc reporter cells, 10 nM Dexamethasone, 18-24 hours
Procedure: Cell Line: CHO-K1-GR-MMTV-Luc reporter cells
Culture Media: DMEM (with phenol red)+10% FBS
Assay Media: DMEM (without phenol red)+10% CSS
Culture CHO-K1-GR-MMTV-Luc reporter cells in 15 cm plates in Culture Media at conditions less than 90% confluence.
Prepare 200×DMSO 1:5 serial dilutions of control and test compounds in 96-well non-sterile V bottom plate in DMSO, 8 serial dilutions for each compound.
Add compounds: 5 ul of assay media diluted compounds were added to appropriate wells and followed a quick spin (1000 rpm, 10 sec) to bring media and cells to the bottom of plate. The plates were covered with SealMate film to avoid evaporation and placed in 37° C. incubator for approximately 18-24 hours.
Read plates: Equilibrate appropriate amount of Promega OneGlo luciferase reagent to room temperature. Remove the plates from incubator and add 25 uL of OneGlo reagent/well by multiple channel pipette and read the plates with Tecan F500 luminometer within 3 minutes.
The ability of the compounds disclosed herein to inhibit GR activity was quantified and the respective IC50 value was determined.

Going from `CC#C[C@]1(O)CC[C@H]2[C@@H]3CCC4=CC(=O)CCC4=C3[C@@H](c3ccc(NS(=O)(=O)c4ccc(C)cc4)cc3)C[C@@]21C` to `CC#C[C@]1(O)CC[C@H]2[C@@H]3CCC4=CC(=O)CCC4=C3[C@@H](c3ccc(S(=O)(=O)C(C)(C)C)cc3)C[C@@]21C` [drawing 182], the IC50 falls from greater than 100 nM to less than 100 nM.

First: CC#C[C@]1(O)CC[C@H]2[C@@H]3CCC4=CC(=O)CCC4=C3[C@@H](c3cccc(C(C)O)c3)C[C@@]21C (stereo partly drawn)
Second: CC#C[C@]1(O)CC[C@H]2[C@@H]3CCC4=CC(=O)CCC4=C3[C@@H](c3cccc(CC)c3)C[C@@]21C
The IC50 of the first is higher: greater than 100 nM for the first, less than 100 nM for the second. The second is the more potent here.

Compared with `CC#C[C@]1(O)CC[C@H]2[C@@H]3CCC4=CC(=O)CCC4=C3[C@@H](c3cccc(C4CC4)c3)C[C@@]21C`, `CC#C[C@]1(O)CC[C@H]2[C@@H]3CCC4=CC(=O)CCC4=C3[C@@H](c3ccc(Cl)c(C4CC4)c3)C[C@@]21C` is higher in IC50: less than 100 nM for the first, greater than 100 nM for the second.

Going from `CC#C[C@]1(O)CC[C@H]2[C@@H]3CCC4=CC(=O)CCC4=C3[C@@H](c3cccc(COC)c3)C[C@@]21C` to `CC#C[C@]1(O)CC[C@H]2[C@@H]3CCC4=CC(=O)CCC4=C3[C@@H](c3cccc(OC(C)C)c3)C[C@@]21C`, the IC50 rises from less than 100 nM to greater than 100 nM. The first is the more potent here.

First: CC#C[C@]1(O)CC[C@H]2[C@@H]3CCC4=CC(=O)CCC4=C3[C@@H](c3cccc(C(C)(C)C)c3)C[C@@]21C
Second: CC#C[C@]1(O)CC[C@H]2[C@@H]3CCC4=CC(=O)CCC4=C3[C@@H](c3ccc(C)c(F)c3)C[C@@]21C
The IC50 of the first is higher: greater than 100 nM for the first, less than 100 nM for the second. The second is the more potent here.

`CC#C[C@]1(O)CC[C@H]2[C@@H]3CCC4=CC(=O)CCC4=C3[C@@H](c3ccc(C(C)C)c(OC)c3)C[C@@]21C` and `CC#C[C@]1(O)CC[C@H]2[C@@H]3CCC4=CC(=O)CCC4=C3[C@@H](c3ccc(OC)c(C(C)C)c3)C[C@@]21C` cannot be ordered by IC50: less than 100 nM for the first, less than 100 nM for the second.

First: CC#C[C@]1(O)CC[C@H]2[C@@H]3CCC4=CC(=O)CCC4=C3[C@@H](c3ccc(C)c(OC)c3)C[C@@]21C
Second: CC#C[C@]1(O)CC[C@H]2[C@@H]3CCC4=CC(=O)CCC4=C3[C@@H](c3ccc(F)c(OC)c3)C[C@@]21C
The IC50 of the first is lower: less than 100 nM for the first, greater than 100 nM for the second.

Compared with `CC#C[C@]1(O)CC[C@H]2[C@@H]3CCC4=CC(=O)CCC4=C3[C@@H](c3ccc(C)c(N(C)C)c3)C[C@@]21C`, `CC#C[C@]1(O)CC[C@H]2[C@@H]3CCC4=CC(=O)CCC4=C3[C@@H](c3ccc(Cl)c(N(C)C)c3)C[C@@]21C` is higher in IC50: less than 100 nM for the first, greater than 100 nM for the second.

Going from `CC#C[C@]1(O)CC[C@H]2[C@@H]3CCC4=CC(=O)CCC4=C3[C@@H](c3ccc(C)c(N4CCC4)c3)C[C@@]21C` to `CC#C[C@]1(O)CC[C@H]2[C@@H]3CCC4=CC(=O)CCC4=C3[C@@H](c3ccc4c(c3)OCCCO4)C[C@@]21C`, the IC50 falls from greater than 100 nM to less than 100 nM.

Going from `CC#C[C@]1(O)CC[C@H]2[C@@H]3CCC4=CC(=O)CCC4=C3[C@@H](c3ccc(F)c(N(C)C)c3)C[C@@]21C` to `CC#C[C@]1(O)CC[C@H]2[C@@H]3CCC4=CC(=O)CCC4=C3[C@@H](c3cc(C)c(N(C)C)c(F)c3)C[C@@]21C`, the IC50 falls from greater than 100 nM to less than 100 nM. The second is the more potent here.

`CC#C[C@]1(O)CC[C@H]2[C@@H]3CCC4=CC(=O)CCC4=C3[C@@H](c3c(F)cc(N4CCOCC4)cc3F)C[C@@]21C` and `CC#C[C@]1(O)CC[C@H]2[C@@H]3CCC4=CC(=O)CCC4=C3[C@@H](c3c(F)cc(N4CCCC4)cc3F)C[C@@]21C` cannot be ordered by IC50: less than 100 nM for the first, less than 100 nM for the second.

`CC#C[C@]1(O)CC[C@H]2[C@@H]3CCC4=CC(=O)CCC4=C3[C@@H](c3c(F)cc(N(C)CC)cc3F)C[C@@]21C` and `CC#C[C@]1(O)CC[C@H]2[C@@H]3CCC4=CC(=O)CCC4=C3[C@@H](c3c(F)cc(CC)cc3F)C[C@@]21C` cannot be ordered by IC50: less than 100 nM for the first, less than 100 nM for the second.

`CC#C[C@]1(O)CC[C@H]2[C@@H]3CCC4=CC(=O)CCC4=C3[C@@H](c3cc(F)c(N(C)C)c(F)c3)C[C@@]21C` and `CC#C[C@]1(O)CC[C@H]2[C@@H]3CCC4=CC(=O)CCC4=C3[C@@H](c3cc(F)c(OC)c(F)c3)C[C@@]21C` cannot be ordered by IC50: less than 100 nM for the first, less than 100 nM for the second.

`CC#C[C@]1(O)CC[C@H]2[C@@H]3CCC4=CC(=O)CCC4=C3[C@@H](c3c(F)cc(C)cc3F)C[C@@]21C` and `CC#C[C@]1(O)CC[C@H]2[C@@H]3CCC4=CC(=O)CCC4=C3[C@@H](c3c(F)cc(OC)cc3F)C[C@@]21C` cannot be ordered by IC50: less than 100 nM for the first, less than 100 nM for the second.

`CC#C[C@]1(O)CC[C@H]2[C@@H]3CCC4=CC(=O)CCC4=C3[C@@H](c3cc(F)c(N(C)C)cc3F)C[C@@]21C` and `CC#C[C@]1(O)C2(CC2)C[C@H]2[C@@H]3CCC4=CC(=O)CCC4=C3[C@@H](c3c(F)cc(N(C)C)cc3F)C[C@@]21C` cannot be ordered by IC50: less than 100 nM for the first, less than 100 nM for the second.

Compared with `CC#C[C@]1(OC(C)=O)CC[C@H]2[C@@H]3CCC4=CC(=O)CCC4=C3[C@@H](c3cc(F)c(C)c(F)c3)C[C@@]21C`, `CC#C[C@]1(OC(=O)CC)CC[C@H]2[C@@H]3CCC4=CC(=O)CCC4=C3[C@@H](c3cc(F)c(C)c(F)c3)C[C@@]21C` is higher in IC50: less than 100 nM for the first, greater than 100 nM for the second.

`CC#C[C@]1(OC)CC[C@H]2[C@@H]3CCC4=CC(=O)CCC4=C3[C@@H](c3cc(F)c(C)c(F)c3)C[C@@]21C` and `CC#C[C@]1(O)[C@H](C)C[C@H]2[C@@H]3CCC4=CC(=O)CCC4=C3[C@@H](c3cc(F)c(C)c(F)c3)C[C@@]21C` cannot be ordered by IC50: greater than 100 nM for the first, greater than 100 nM for the second.

`CC#C[C@]1(O)[C@H](C)C[C@H]2[C@@H]3CCC4=CC(=O)CCC4=C3[C@@H](c3c(F)cc(N4CCOCC4)cc3F)C[C@@]21C` and `CC#C[C@]1(O)[C@H](C)C[C@H]2[C@@H]3CCC4=CC(=O)CCC4=C3[C@@H](c3c(F)cc(N4CCC4)cc3F)C[C@@]21C` cannot be ordered by IC50: less than 100 nM for the first, less than 100 nM for the second.

`CC#C[C@]1(O)[C@H](C)C[C@H]2[C@@H]3CCC4=CC(=O)CCC4=C3[C@@H](c3c(F)cc(N(C)C)cc3F)C[C@@]21C` and `CC#C[C@]1(O)[C@H](C)C[C@H]2[C@@H]3CCC4=CC(=O)CCC4=C3[C@@H](c3cc(F)c(N(C)C)c(F)c3)C[C@@]21C` cannot be ordered by IC50: less than 100 nM for the first, less than 100 nM for the second.

`CC#C[C@]1(O)C2(CC2)C[C@H]2[C@@H]3CCC4=CC(=O)CCC4=C3[C@@H](c3ccc(S(=O)(=O)N(C)C)cc3)C[C@@]21C` and `CC#C[C@]1(O)[C@H](C)C[C@H]2[C@@H]3CCC4=CC(=O)CCC4=C3[C@@H](c3ccc(S(=O)(=O)N(C)C)cc3)C[C@@]21C` cannot be ordered by IC50: less than 100 nM for the first, less than 100 nM for the second.

Going from `CC#C[C@]1(O)[C@H](C)C[C@H]2[C@@H]3CCC4=CC(=O)CCC4=C3[C@@H](c3ccc(C)c(F)c3)C[C@@]21C` to `CC#C[C@]1(O)[C@H](C)C[C@H]2[C@@H]3CCC4=CC(=O)CCC4=C3[C@@H](c3ccc(S(=O)(=O)C(C)(C)C)cc3)C[C@@]21C`, the IC50 rises from less than 100 nM to greater than 100 nM.

First: CC#C[C@]1(O)[C@H](CC)C[C@H]2[C@@H]3CCC4=CC(=O)CCC4=C3[C@@H](c3ccccc3)C[C@@]21C
Second: CC#C[C@]1(O)CC[C@H]2[C@@H]3CCC4=CC(=O)CCC4=C3[C@@H](c3ccc(S(=O)(=O)N4CCCCC4)cc3)C[C@@]21C [drawing 181]
The IC50 of the first is higher: greater than 100 nM for the first, less than 100 nM for the second. The second is the more potent here.

For `[2H]C([2H])([2H])C#C[C@]1(O)CC[C@H]2[C@@H]3CCC4=CC(=O)CCC4=C3[C@@H](c3ccc4c(c3)OCCO4)C[C@@]21C`, the IC50 was less than 100 nM.
